Peptide text beside a SMILES is read from it. * marks the point of attachment. Cbz = O=C(OCc1ccccc1)*

The test system of one assay is L6 cell line. The assay can be described thus: Immunoblotting of muscle actin levels in L6 cells after MG132 treatment. The format is cell-based, rat. As to conditions: MG132 10 uM alone, 24 hours, immunoblot, compared to a control. How it is done:
(§1) A L6 cell line, which is a rat muscle-derived cell, was cultured using a DMEM medium containing 10% FBS and 1% streptomycin/penicillin in an incubator in which 5% carbon dioxide was maintained, and cells were aliquoted into a 12-well plate after the culture. The cells were additionally cultured for 24 hours so as to be completely attached to the surface of the plate. To confirm whether MG132 increased UBR1 binding, cells were collected after treatment with MG132 (10 uM) alone for 24 hours. To extract proteins from the collected cells, 50 uL of a lysis buffer (20 mM Tris, pH 7.4, 150 mM NaCl, 1% Triton-X-100, 2 mM NaF, 2 mM EDTA, 2 mM b-glycerophosphate, 5 mM sodium orthovanadate, 1 mM PMSF, leupeptin, aprotenin) was injected into each sample, and the cells were lysed. A sample buffer was added to each sample based on the measured total protein concentration, and the mixture was reacted at 100° C. for 5 minutes. After 5 uL was taken from the completely reacted sample and aliquoted into each well of an acrylamide gel, an immunoblotting method was performed, and the experimental results are illustrated in [FIG. 1].
For the immunoblotting method, a representative experiment was schematized from three or more independent experiments.
Referring to FIG. 1, it was confirmed that the levels of ACTA1, ACTC1, and ACTG2 were increased by MG132 compared to a control. Further, it was confirmed that the levels of ACTA1 and ACTG2 were increased when a UBR protein was knocked down. That is, it could be confirmed that muscle actin is an Arg/N-degron pathway substrate.

In assay [1] the test system is UBR1. The assay can be described thus: Inhibition of R-nsP4 degradation by in vitro transcription/translation method. As to conditions: compound 1 uM, 30° C. for 40 minutes, DHFR-Ub-R-nsP4 plasmid, compared to the control. It counts as biochemical. Here is the method:
A TnT® Quick Coupled Transcription/Translation System kit was used to confirm the R-nsP4 expression of the compounds. After a pre-mix was made using Transcend Biotin-Lysyl-tRNA, methionine, bestatin, a TnTquick Master mix and a DHFR-Ub-R-nsP4 plasmid, the pre-mix was mixed with a compound (1 uM). After each sample was reacted at 30° C. for 40 minutes, a 5×SDS loading dye was added thereto. After the resulting mixture was reacted at 95° C. for 2 minutes, 5 uL was taken and aliquoted into each well of an acrylamide gel, and then an immunoblotting method was performed, and the experimental results are illustrated in [FIG. 2]. For an in vitro transcription/translation method, a representative experiment was schematized from three or more independent experiments.

The target in assay [2] is T1, UBR1 (Rattus norvegicus, UniProt A0A8I5ZK69).
T1 construct: endogenous in cells; host or cells: L6 rat muscle-derived cells
The assay can be described thus: Inhibition of muscle cell actin degradation by immunoblotting (L6 cells). The format is cell-based. Particulars: compound 5 uM alone, 24 hours, immunoblot. How it is done: as §1, with “To evaluate the actin degradation of compounds in muscle cells, a L6” for “A L6”, “was maintained. In order to measure the UBR1 binding strength according to the treatment with a representative compound selected from the present compounds,” for “was maintained, and”, “12-well plate.” for “12-well plate after the culture.”, “plate. […]” for “plate. To confirm whether MG132 increased UBR1 binding, cells were collected after treatment with MG132 (10 uM) alone for 24 hours.”, “results were” for “results are”, “[FIG. 3]. For the immunoblotting method, a representative experiment was schematized from three or more independent experiments.” for “[FIG. 1].”

T1 sequence (A0A8I5ZK69 1-1749): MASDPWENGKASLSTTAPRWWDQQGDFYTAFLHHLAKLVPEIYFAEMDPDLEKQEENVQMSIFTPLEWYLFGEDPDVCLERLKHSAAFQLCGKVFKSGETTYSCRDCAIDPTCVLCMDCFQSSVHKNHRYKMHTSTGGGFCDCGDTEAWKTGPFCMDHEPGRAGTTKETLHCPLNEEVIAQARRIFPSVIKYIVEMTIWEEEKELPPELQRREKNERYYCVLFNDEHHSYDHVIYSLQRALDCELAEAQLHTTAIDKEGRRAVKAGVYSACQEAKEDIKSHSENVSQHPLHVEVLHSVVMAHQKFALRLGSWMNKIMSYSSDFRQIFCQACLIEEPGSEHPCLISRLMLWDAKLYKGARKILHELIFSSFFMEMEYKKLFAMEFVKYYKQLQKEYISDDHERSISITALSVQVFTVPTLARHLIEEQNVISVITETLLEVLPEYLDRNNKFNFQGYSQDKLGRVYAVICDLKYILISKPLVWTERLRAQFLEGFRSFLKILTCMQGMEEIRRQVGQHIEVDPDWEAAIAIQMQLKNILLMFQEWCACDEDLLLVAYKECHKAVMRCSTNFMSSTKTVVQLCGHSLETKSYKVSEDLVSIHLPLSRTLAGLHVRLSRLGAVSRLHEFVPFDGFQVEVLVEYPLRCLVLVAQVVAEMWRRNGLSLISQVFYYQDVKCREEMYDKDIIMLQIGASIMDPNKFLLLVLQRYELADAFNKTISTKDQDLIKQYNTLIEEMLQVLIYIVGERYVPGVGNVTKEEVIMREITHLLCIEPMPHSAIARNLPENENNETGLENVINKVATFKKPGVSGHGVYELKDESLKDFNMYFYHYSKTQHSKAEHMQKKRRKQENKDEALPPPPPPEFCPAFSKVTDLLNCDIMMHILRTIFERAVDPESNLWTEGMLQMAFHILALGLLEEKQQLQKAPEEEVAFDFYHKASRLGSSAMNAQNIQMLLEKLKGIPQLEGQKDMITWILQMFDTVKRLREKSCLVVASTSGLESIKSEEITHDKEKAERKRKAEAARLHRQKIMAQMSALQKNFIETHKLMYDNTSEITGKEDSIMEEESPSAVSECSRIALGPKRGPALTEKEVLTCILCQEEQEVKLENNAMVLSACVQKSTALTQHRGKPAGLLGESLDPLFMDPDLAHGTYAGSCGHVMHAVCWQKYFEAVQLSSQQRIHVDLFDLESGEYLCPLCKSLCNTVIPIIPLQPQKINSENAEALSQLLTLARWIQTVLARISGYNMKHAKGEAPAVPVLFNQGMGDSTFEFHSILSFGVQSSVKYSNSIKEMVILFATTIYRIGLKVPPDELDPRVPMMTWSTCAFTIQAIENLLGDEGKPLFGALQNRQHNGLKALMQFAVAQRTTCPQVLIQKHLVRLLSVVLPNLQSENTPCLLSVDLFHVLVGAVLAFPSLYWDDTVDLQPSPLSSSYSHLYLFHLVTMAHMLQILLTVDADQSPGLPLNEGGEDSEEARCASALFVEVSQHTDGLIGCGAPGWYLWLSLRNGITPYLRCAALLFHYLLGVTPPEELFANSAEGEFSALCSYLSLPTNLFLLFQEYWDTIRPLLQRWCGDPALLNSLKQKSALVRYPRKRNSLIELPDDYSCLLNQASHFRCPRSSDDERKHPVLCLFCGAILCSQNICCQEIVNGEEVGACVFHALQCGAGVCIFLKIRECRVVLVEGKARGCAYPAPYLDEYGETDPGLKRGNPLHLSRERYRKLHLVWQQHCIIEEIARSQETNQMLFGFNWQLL

As for `CC(C)C[C@@H](C=O)NC(=O)[C@H](CC(C)C)NC(=O)[C@H](CC(C)C)NC(=O)OCc1ccccc1` [MG132] (Cbz-Leu-Leu-Leu-aldehyde), in the assay with L6 cell line, the “level of ACTA1” value is on record as “increased”, the “level of ACTC1” value was “increased” and the “level of ACTG2” value is given as “increased”.

In the case of `COCCCCC(=O)Nc1cc(C(N)=O)ccc1Cl` [Compound 2, 4-chloro-3-(5-methoxypentanamido)benzamide], the “level of R-nsP4” value in the assay with UBR1 [1] is “increased”. For the same compound, the “level of ACTA1” value at UBR1 [2] was “further increased”.

In the case of `COCCCCC(=O)Nc1cc(C(C)=O)ccc1Cl` [Compound 1, N-(5-acetyl-2-chlorophenyl)-5-methoxypentanamide], the “level of R-nsP4” value in the assay on UBR1 [1] is on record as “increased”. Also, at UBR1 [2], the “level of ACTA1” value was “further increased”.

(Values after US12509420B2, “Compound as a UBR box domain ligand” (AUTOTAC INC., priority 2020, dated 2025).)
